Data reported in ChEMBL document CHEMBL1126472, “Multipurpose receptor ligands: -carboline cholecystokinin antagonists” (Bioorg Med Chem Lett, 1993).

Assays:
[1] = biological target: T1, Cholecystokinin receptor type A (Rattus norvegicus, UniProt P30551); assay: Tested for its activity to inhibit the binding of [125I]CCK-33 to Cholecystokinin type A receptor in rat pancreas
T1 sequence (P30551 whole entry): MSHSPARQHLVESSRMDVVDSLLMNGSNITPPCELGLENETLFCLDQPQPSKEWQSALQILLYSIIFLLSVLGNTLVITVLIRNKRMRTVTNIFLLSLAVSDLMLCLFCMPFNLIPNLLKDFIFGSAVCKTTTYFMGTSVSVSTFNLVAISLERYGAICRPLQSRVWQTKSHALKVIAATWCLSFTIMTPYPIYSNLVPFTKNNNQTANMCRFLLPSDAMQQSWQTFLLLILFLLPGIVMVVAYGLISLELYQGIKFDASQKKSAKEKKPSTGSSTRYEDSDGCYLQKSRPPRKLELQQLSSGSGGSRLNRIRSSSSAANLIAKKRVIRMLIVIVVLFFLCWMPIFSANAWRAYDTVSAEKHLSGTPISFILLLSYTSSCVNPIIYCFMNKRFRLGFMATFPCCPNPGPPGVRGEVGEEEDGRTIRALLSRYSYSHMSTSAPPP

[2] = Tested for its activity to inhibit the binding of [125I]CCK-33 to Cholecystokinin type B receptor in guinea pig brain
[3] = Tested for its activity to inhibit the binding of [125I]gastrin to gastric glands (gastrin) in guinea pig

Compound	IC50 [1] [nM]	IC50 [2] [nM]	IC50 [3] [nM]
CN1C(=O)C(NC(=O)Cc2c[nH]c3ccccc23)N=C(c2ccccc2)c2ccccc21 (stereo unspecified)	1000		
CN1C(=O)[C@H](NC(=O)Nc2cc3c4ccccc4nc-3c[nH]2)N=C(c2ccccc2)c2ccccc21	89		
CN1C(=O)[C@@H](NC(=O)Nc2cc3c4ccccc4nc-3c[nH]2)N=C(c2ccccc2)c2ccccc21	110		
CN1C(=O)[C@H](NC(=O)Nc2ccc(Cl)cc2)N=C(c2ccccc2)c2ccccc21		5.5	12
COC(=O)c1cc2c(cn1)[nH]c1ccccc12 [BETA-CCM]	> 100000		
CN1C(=O)[C@@H](NC(=O)Nc2ccc(Cl)cc2)N=C(c2ccccc2)c2ccccc21		410	540

Further lines, with some results ahead:

IC50 [1] [nM]	Compound	IC50 [2] [nM]	IC50 [3] [nM]
7100	O=C(Nc1cc2c3ccccc3nc-2c[nH]1)c1ccccc1		
710	Cn1c(C(=O)Nc2cc3c4ccccc4nc-3c[nH]2)cc2ccccc21		
24	O=C(Cc1c[nH]c2ccccc12)Nc1cc2c3ccccc3nc-2c[nH]1		
> 100000	Nc1cc2c(cn1)[nH]c1ccccc12		
330	O=C(CCc1ccccc1)Nc1cc2c3ccccc3nc-2c[nH]1		
3500	O=C(Nc1cc2c3ccccc3nc-2c[nH]1)c1ccc(Cl)cc1		
85	O=C(Nc1ccc(Cl)cc1)Nc1cc2c3ccccc3nc-2c[nH]1		
40	O=C(Cc1ccccc1)Nc1cc2c3ccccc3nc-2c[nH]1		
